Reference: patent US4619925A, “3-Propenyl cephalosporin derivatives” (priority 1985, dated 1986)
In brackets after ≈: the same amount, converted by molar mass. Read-outs that look alike come from different tables or passages of the source.

Legend:
E. coli A20341-1 = assay: MIC, agar dilution technique (Mueller-Hinton Agar); assay type: cell-based; conditions: Escherichia coli, A203411; E. coli A20341-1; Gn-Ib, ampicillin and cephalothin resistant; read-out: Minimum Inhibitory Concentration
From the text: (§1) Each of these groups of organisms is constituted of five individual strains of microorganism. The Gp-Ia organisms are Gram-positive staphylococci which are sensitive to penicillin. The Gp-Ib organisms are Gram-positive staphylococci which are resistant to penicillin and produce penicillinase. The Gn-Ia organisms are Gram-negative bacteria which are sensitive to ampicillin and cephalothin. The Gn-Ib organisms are Gram-negative bacteria which are resistant to ampicillin and cephalothin.

E. coli A9660 = assay: MIC, agar dilution technique (Mueller-Hinton Agar); assay type: cell-based; conditions: Escherichia coli; E. coli A9660; Gn-Ia, ampicillin and cephalothin sensitive; read-out: Minimum Inhibitory Concentration
From the text: as §1

E. coli Juhl = assay: MIC, agar dilution technique (Mueller-Hinton Agar); assay type: cell-based; conditions: Escherichia coli; E. coli Juhl; Gn-Ia, ampicillin and cephalothin sensitive; read-out: Minimum Inhibitory Concentration
From the text: as §1

K. pneumoniae A20346 = assay: MIC, agar dilution technique (Mueller-Hinton Agar); assay type: cell-based; conditions: Klebsiella pneumoniae; K. pneumoniae A20346; Gn-Ib, ampicillin and cephalothin resistant; read-out: Minimum Inhibitory Concentration
From the text: as §1

K. pneumoniae D11 = assay: MIC, agar dilution technique (Mueller-Hinton Agar); assay type: cell-based; conditions: Klebsiella pneumoniae; K. pneumoniae D11; Gn-Ia, ampicillin and cephalothin sensitive; read-out: Minimum Inhibitory Concentration
From the text: as §1

P. mirabilis A9554 = assay: MIC, agar dilution technique (Mueller-Hinton Agar); assay type: cell-based; conditions: Proteus mirabilis; P. mirabilis A9554; Gn-Ia, ampicillin and cephalothin sensitive; read-out: Minimum Inhibitory Concentration
From the text: as §1

P. mirabilis A9900 = assay: MIC, agar dilution technique (Mueller-Hinton Agar); assay type: cell-based; conditions: Proteus mirabilis; P. mirabilis A9900; Gn-Ia, ampicillin and cephalothin sensitive; read-out: Minimum Inhibitory Concentration
From the text: as §1

S. aureus A15092 = assay: MIC, agar dilution technique (Mueller-Hinton Agar); assay type: cell-based; conditions: Staphylococcus aureus, Gp-Ib, penicillin resistant, read-out: Minimum Inhibitory Concentration
From the text: as §1

S. aureus A9497 = assay: MIC, agar dilution technique (Mueller-Hinton Agar); assay type: cell-based; conditions: Staphylococcus aureus, Gp-Ia, penicillin sensitive, read-out: Minimum Inhibitory Concentration
From the text: as §1

S. aureus A9534 = assay: MIC, agar dilution technique (Mueller-Hinton Agar); assay type: cell-based; conditions: Staphylococcus aureus, Gp-Ia, penicillin sensitive, read-out: Minimum Inhibitory Concentration
From the text: as §1

S. aureus A9601 = assay: MIC, agar dilution technique (Mueller-Hinton Agar); assay type: cell-based; conditions: Staphylococcus aureus; S. aureus A9601; Gp-Ia, penicillin sensitive; read-out: Minimum Inhibitory Concentration
From the text: as §1

S. aureus A9602 = assay: MIC, agar dilution technique (Mueller-Hinton Agar); assay type: cell-based; conditions: Staphylococcus aureus; S. aureus A9602; Gp-Ib, penicillin resistant; read-out: Minimum Inhibitory Concentration
From the text: as §1

S. aureus BX-1633-2 = assay: MIC, agar dilution technique (Mueller-Hinton Agar); assay type: cell-based; conditions: Staphylococcus aureus, BX16332; S. aureus BX-1633-2; Gp-Ib, penicillin resistant; read-out: Minimum Inhibitory Concentration
From the text: as §1

S. aureus No. 193 = assay: MIC, agar dilution technique (Mueller-Hinton Agar); assay type: cell-based; conditions: Staphylococcus aureus, Gp-Ib, penicillin resistant, read-out: Minimum Inhibitory Concentration
From the text: as §1

S. aureus Russell = assay: MIC, agar dilution technique (Mueller-Hinton Agar); assay type: cell-based; conditions: Staphylococcus aureus; S. aureus Russell; Gp-Ib, penicillin resistant; read-out: Minimum Inhibitory Concentration
From the text: as §1

S. aureus Smith = assay: MIC, agar dilution technique (Mueller-Hinton Agar); assay type: cell-based; conditions: Staphylococcus aureus, Gp-Ia, penicillin sensitive, read-out: Minimum Inhibitory Concentration
From the text: as §1

S. aureus Terajima = assay: MIC, agar dilution technique (Mueller-Hinton Agar); assay type: cell-based; conditions: Staphylococcus aureus, Gp-Ia, penicillin sensitive, read-out: Minimum Inhibitory Concentration
From the text: as §1

Mouse blood levels = conditions: mouse; for half-life: T 1/2
From the text: Table 3 contains comparative blood level data for mice treated orally and intramuscularly with the hydroxyphenylglycyl derivatives.

Mouse urinary recovery = assay type: in vivo, mice; conditions: mouse, urine, po, 20 mg/kg; for dose excreted at 24 h: p.o.
[1] = test system: Gn-Ia organisms (Gram-negative bacteria sensitive to ampicillin and cephalothin); assay: In vitro activity, agar dilution, group of five strains; assay type: cell-based
From the text: as §1

Structure (SMILES): C/C=C\C1=C(C(=O)O)N2C(=O)C(NC(=O)[C@H](N)c3ccc(O)cc3)[C@H]2SC1 (stereo partly drawn) [BMY-28100, 7-[D-2-amino-2-(4-hydroxyphenyl)acetamido]-3-[(Z)-1-propen-1-yl]-3-cephem-4-carboxylic acid]
- MIC (E. coli A20341-1): 25 mg/L (≈ 64.2 µM)
- MIC (E. coli A9660): 0.8 mg/L (≈ 2.05 µM)
- MIC (E. coli Juhl): 1.6 mg/L (≈ 4.11 µM)
- MIC (K. pneumoniae A20346): 25 mg/L (≈ 64.2 µM)
- MIC (K. pneumoniae D11): 0.8 mg/L (≈ 2.05 µM)
- MIC (P. mirabilis A9554): 0.8 mg/L (≈ 2.05 µM)
- MIC (P. mirabilis A9900): 0.8 mg/L (≈ 2.05 µM)
- MIC (S. aureus A15092): 1.6 mg/L (≈ 4.11 µM)
- MIC (S. aureus A9497): 0.4 mg/L (≈ 1.03 µM)
- MIC (S. aureus A9534): 0.4 mg/L (≈ 1.03 µM)
- MIC (S. aureus A9601): 0.8 mg/L (≈ 2.05 µM)
- MIC (S. aureus A9602): 0.8 mg/L (≈ 2.05 µM)
- MIC (S. aureus BX-1633-2): 0.8 mg/L (≈ 2.05 µM)
- MIC (S. aureus No. 193): 1.6 mg/L (≈ 4.11 µM)
- MIC (S. aureus Russell): 0.8 mg/L (≈ 2.05 µM)
- MIC (S. aureus Smith): 0.4 mg/L (≈ 1.03 µM)
- MIC (S. aureus Terajima): 0.4 mg/L (≈ 1.03 µM)
- concentration at 10 min (Mouse blood levels; blood, im, 20 mg/kg): 14 µg/mL
- concentration at 20 min (Mouse blood levels; blood, im, 20 mg/kg): 15 µg/mL
- concentration at 0.5 h (Mouse blood levels; blood, im, 20 mg/kg): 12 µg/mL
- concentration at 40 min (Mouse blood levels; blood, im, 20 mg/kg): 8.5 µg/mL
- concentration at 50 min (Mouse blood levels; blood, im, 20 mg/kg): 7.5 µg/mL
- concentration at 1 h (Mouse blood levels; blood, im, 20 mg/kg): 5.4 µg/mL
- concentration at 1.5 h (Mouse blood levels; blood, im, 20 mg/kg): 2.5 µg/mL
- concentration at 2 h (Mouse blood levels; blood, im, 20 mg/kg): 1.6 µg/mL
- concentration at 0.5 h (Mouse blood levels; blood, po, 20 mg/kg): 9.3 µg/mL
- concentration at 1 h (Mouse blood levels; blood, po, 20 mg/kg): 6.9 µg/mL
- concentration at 2 h (Mouse blood levels; blood, po, 20 mg/kg): 4.2 µg/mL
- concentration at 3 h (Mouse blood levels; blood, po, 20 mg/kg): 2.5 µg/mL
- concentration at 4 h (Mouse blood levels; blood, po, 20 mg/kg): 0.97 µg/mL
- concentration at 5 h (Mouse blood levels; blood, po, 20 mg/kg): 0.81 µg/mL
- concentration at 6 h (Mouse blood levels; blood, po, 20 mg/kg): 0.65 µg/mL
- concentration at 7 h (Mouse blood levels; blood, po, 20 mg/kg): 0.34 µg/mL
- concentration at 0.5 h (Mouse blood levels; blood, po, 100 mg/kg): 33 µg/mL
- concentration at 1 h (Mouse blood levels; blood, po, 100 mg/kg): 17 µg/mL
- concentration at 2 h (Mouse blood levels; blood, po, 100 mg/kg): 6.5 µg/mL
- concentration at 3 h (Mouse blood levels; blood, po, 100 mg/kg): 4.5 µg/mL
- concentration at 4 h (Mouse blood levels; blood, po, 100 mg/kg): 3.3 µg/mL
- concentration at 5 h (Mouse blood levels; blood, po, 100 mg/kg): 2.7 µg/mL
- concentration at 6 h (Mouse blood levels; blood, po, 100 mg/kg): 2.5 µg/mL
- concentration at 7 h (Mouse blood levels; blood, po, 100 mg/kg): 1.7 µg/mL
- AUC (Mouse blood levels; in vivo, im, 20 mg/kg): 13 µg·h/mL
- half-life (Mouse blood levels; in vivo, im, 20 mg/kg): 0.52 h
- Cmax (Mouse blood levels; in vivo, po, 20 mg/kg): 12 µg/mL
- T 1/2 (Mouse blood levels; in vivo, po, 20 mg/kg): 2.3 h
- AUC (Mouse blood levels; in vivo, po, 20 mg/kg): 20 µg·h/mL
- half-life (Mouse blood levels; in vivo, po, 20 mg/kg): 1.4 h
- AUC (Mouse blood levels; in vivo, po, 100 mg/kg): 51 µg·h/mL
- half-life (Mouse blood levels; in vivo, po, 100 mg/kg): 2.1 h
- dose excreted at 2 h (Mouse urinary recovery; 0-2 hr): 60%
- dose excreted at 4 h (Mouse urinary recovery; 2-4 hr): 5.3%
- dose excreted at 6 h (Mouse urinary recovery; 4-6 hr): 1.3%
- dose excreted at 24 h (Mouse urinary recovery; 6-24 hr, read-out: Mouse urinary recovery 6-24 hr): 2.3%
- dose excreted at 24 h (Mouse urinary recovery; total, read-out: Mouse urinary recovery Total): 69%
- activity relative to cephalexin and cefaclor [1]: more active than cephalexin and slightly better than cefaclor
